Experimental findings from patent US9700044B2, “Symmetrical marinopyrrole derivatives as potential antibiotic agents” (priority 2013, dated 2017) are described below.

For test [1], the system named is Methicillin-resistant Staphylococcus aureus (MRSA). Briefly: MIC by agar dilution, MRSA clinical isolates. It counts as cell-based. The note with it: MRSA. From the text: (§1) A panel of multiple resistance Gram-positive and Gram-negative pathogens listed in Tables 1 and 2 was used to evaluate the antimicrobial activity of marinopyrrole derivatives (Chart 1) with vancomycin as a positive control. Except for those marked with WHO, all pathogens were isolated between 2008 and 2010 in hospitals located in Beijing; Guangzhou; Sichuan, Shandong and Jiangsu Province. Determination of the minimum inhibitory concentration (MIC) was done by the guidelines of the Clinical and Laboratory Standards Institute (Clinical and Laboratory Standards Institute, Performance standards for antimicrobial susceptibility testing, seventeenth informational supplement. 2007, 27, M100-S17). The susceptibility tests of a bacterial strain to a marinopyrrole derivative were performed by an agar dilution method. Briefly, each sterile petri dish contained a final volume of 15 mL comprising 1 mL of a marinopyrrole derivative and 14 mL of Mueller-Hinton broth. The concentrations of a marinopyrrole derivative are 128, 64, 32, 16, 8, 4, 2, 1, 0.5, 0.25, 0.125, 0.06, 0.03, 0.015 and 0.008 μg/mL. The petri dish containing the broth with different concentration of antibiotics was first inoculated with 10^5 CFU/mL (Denley A400, United Kingdom) and the culture was then incubated with shaking at 35-37° C. for 18-20 h. The potency of the compound was determined and expressed as minimum inhibitory concentration (MIC) in μg/mL. The MIC was determined as the lowest concentration of antibiotic that inhibited visible bacterial growth.
In general terms: Agar dilution tests growth on a series of plates holding different concentrations.

In test [2] the test system is Methicillin-resistant Staphylococcus epidermidis (MRSE). In words: MIC by agar dilution, MRSE clinical isolates. It counts as cell-based. The conditions noted are these: MRSE.
Text: as §1

Test [3] relates to Moderately vancomycin-resistant Enterococci faecium with the VanA gene (WHO-3). Briefly: MIC by agar dilution, VRE (WHO-3). It counts as cell-based.
Text: as §1

Test [4] deals with Methicillin-resistant Staphylococcus aureus with the mec A gene and PBP2a (WHO-31). In words: MIC by agar dilution, MRSA (WHO-31). It counts as cell-based.
Text: as §1

The test system of test [5] is Oxacillin-resistant Staphylococcus aureus (WHO-25). Briefly: MIC by agar dilution, ORSA (WHO-25). It counts as cell-based.
Text: as §1

For test [6], the system named is Methicillin-susceptible Staphylococcus aureus (MSSA). In words: MIC by agar dilution, MSSA clinical isolates. It counts as cell-based. The conditions noted are these: MSSA.
Text: as §1

The test system of test [7] is Highly vancomycin-resistant Enterococci faecalis (VRE). Briefly: MIC by agar dilution, highly resistant VRE. It counts as cell-based.
Text: as §1

The test system of another test is E. coli. Briefly: MIC by agar dilution, E. coli. It counts as cell-based.
Text: as §1

The subject of the next test is K. penumonia. In words: MIC by agar dilution, K. penumonia. It counts as cell-based, K. pneumonia.
Text: as §1

A further test has as its system P. aeruginosa. In words: MIC by agar dilution, P. aeruginosa. It counts as cell-based.
Text: as §1

The mark [8] stands for this setting: Table 1, VRE (WHO-3), 1 isolate.
Where [9] appears, read: Table 1, MRSA (WHO-31), 1 isolate.
The mark [10] stands for this setting: Table 1, ORSA (WHO-25), 1 isolate.
The mark [11] stands for this setting: Table 1, VRE (highly vancomycin-resistant E. faecalis), 2 isolates.
Setting [12] is: Table 1, E. coli, 4 isolates, value over three Gram-negative pathogens.
The mark [13] stands for this setting: Table 1, K. penumonia, 4 isolates, value over three Gram-negative pathogens.
Where [14] appears, read: Table 1, P. aeruginosa, 4 isolates, value over three Gram-negative pathogens.
[15] abbreviates: Staphylococcus aureus, Table 1, 10 isolates.
Where [16] appears, read: Staphylococcus aureus, Table 2, data from 8 isolates.
[17] abbreviates: Staphylococcus aureus, Table 3, data from 8 isolates.
[18] abbreviates: Staphylococcus epidermidis, Table 1, 3 isolates.
The mark [19] stands for this setting: Staphylococcus epidermidis, Table 2, data from 4 isolates.
Setting [20] is: Staphylococcus epidermidis, Table 3, data from 4 isolates.
Setting [21] is: Staphylococcus aureus, Table 1, ORSA (WHO-25), 1 isolate.
[22] abbreviates: Staphylococcus aureus, Table 3, WHO-25.
The mark [23] stands for this setting: Staphylococcus aureus, Table 2, WHO-25.

Values after ≈ are worked out from the molar mass of the structure shown. Like-named read-outs stand apart in the source and are kept apart here. Bounds are passed on as bounds.

Take `O=C(c1ccccc1C(F)(F)F)c1[nH]c(Cl)c(Cl)c1-n1c(C(=O)c2ccccc2C(F)(F)F)cc(Cl)c1Cl` [Compound 1j]: the MIC in [1] (Table 1, 10 isolates) is greater than 128 µg/mL; in test [2] (Table 1, 3 isolates), greater than 128 µg/mL; in [3] (setting [8]) it was greater than 128 µg/mL; in test [4] (setting [9]), greater than 128 µg/mL; in [5] (setting [10]), greater than 128 µg/mL; in test [6] (Table 1, 10 isolates), greater than 128 µg/mL. Also, the MIC (in test [7] (setting [11]); in the test on E. coli (setting [12]); against K. penumonia (setting [13]); in the test on P. aeruginosa (setting [14])) was greater than 128 µg/mL in each case.
For the molecule `COc1cccc(C(=O)c2[nH]c(Cl)c(Cl)c2-n2c(C(=O)c3cccc(OC)c3)cc(Cl)c2Cl)c1` [Compound 1e], the MIC is greater than 128 µg/mL in test [1] (Table 1, 10 isolates); greater than 128 µg/mL in test [2] (Table 1, 3 isolates); greater than 128 µg/mL in test [3] (setting [8]); greater than 128 µg/mL in [4] (setting [9]); greater than 128 µg/mL in test [5] (setting [10]); greater than 128 µg/mL in [6] (Table 1, 10 isolates). Moreover, the MIC (in [7] (setting [11]); against E. coli (setting [12]); in the test on K. penumonia (setting [13]); in the test on P. aeruginosa (setting [14])) was greater than 128 µg/mL in each case.
For `COc1cc(OC)c(C(=O)c2[nH]c(Cl)c(Cl)c2-n2c(C(=O)c3cc(Cl)c(OC)cc3OC)cc(Cl)c2Cl)cc1Cl` [Compound 1n], the MIC was greater than 64 µg/mL in test [1] (Table 1, 10 isolates); greater than 64 µg/mL in [2] (Table 1, 3 isolates); greater than 64 µg/mL in [3] (setting [8]); greater than 64 µg/mL in test [4] (setting [9]); greater than 64 µg/mL in test [5] (setting [10]); greater than 64 µg/mL in test [6] (Table 1, 10 isolates). The MIC (in test [7] (setting [11]); against E. coli (setting [12]); with K. penumonia (setting [13]); in the test with P. aeruginosa (setting [14])) was greater than 64 µg/mL each time.
Consider `O=C(c1ccccc1O)c1[nH]c(Cl)c(Cl)c1-n1c(C(=O)c2ccccc2O)cc(Cl)c1Cl` [Compound 1, marinopyrrole A, reference compound], for which the MIC was 1 µg/mL (≈ 1.96 µM) in test [1] (setting [15]); 0.5 to 1 µg/mL (≈ 0.98 to 1.96 µM) in test [1] (setting [16]); 0.5 to 1 µg/mL (≈ 0.98 to 1.96 µM) in test [1] (setting [17]); 0.06 to 1 µg/mL (≈ 0.118 to 1.96 µM) in test [2] (setting [18]); 0.25 µg/mL (≈ 0.49 µM) in [2] (setting [19]); 0.25 µg/mL (≈ 0.49 µM) in test [2] (setting [20]). Further, the MIC in test [3] (Enterococcus) is 1 µg/mL (≈ 1.96 µM); in test [3] (Enterococcus, VRE), 0.5 to 1 µg/mL (≈ 0.98 to 1.96 µM); in [3] (Table 3, WHO-3), 1 µg/mL (≈ 1.96 µM); in [4] (Staphylococcus aureus), 1 µg/mL (≈ 1.96 µM); in test [4] (Staphylococcus aureus, MRSA), 1 µg/mL (≈ 1.96 µM); in test [4] (Table 3, WHO-31) it was 1 µg/mL (≈ 1.96 µM). In addition, the MIC is 1 µg/mL (≈ 1.96 µM) in test [5] (setting [21]); 1 µg/mL (≈ 1.96 µM) in test [5] (setting [22]); 1 µg/mL (≈ 1.96 µM) in test [5] (setting [23]); 0.5 to 1 µg/mL (≈ 0.98 to 1.96 µM) in test [6] (setting [15]); 0.5 µg/mL (≈ 0.98 µM) in [6] (setting [16]); 0.5 µg/mL (≈ 0.98 µM) in test [6] (setting [17]). Moreover, the MIC was 16 to 128 µg/mL (≈ 31.4 to 251 µM) in [7], greater than 128 µg/mL against E. coli (Escherichia coli), greater than 128 µg/mL with K. penumonia (Klebsiella pneumoniae) and greater than 128 µg/mL in the test with P. aeruginosa (Pseudomonas aeruginosa).
Turning to `CN[C@H](CC(C)C)C(=O)N[C@H]1C(=O)N[C@@H](CC(N)=O)C(=O)N[C@H]2C(=O)N[C@H]3C(=O)N[C@H](C(=O)N[C@H](C(=O)O)c4cc(O)cc(O)c4-c4cc3ccc4O)[C@H](O)c3ccc(c(Cl)c3)Oc3cc2cc(c3O[C@@H]2O[C@H](CO)[C@@H](O)[C@H](O)[C@H]2O[C@H]2C[C@](C)(N)[C@H](O)[C@H](C)O2)Oc2ccc(cc2Cl)[C@H]1O` [Van, Vancomycin, reference compound], the MIC is 0.25 to 0.5 µg/mL (≈ 0.173 to 0.345 µM) in test [1] (setting [15]); 0.5 to 1 µg/mL (≈ 0.345 to 0.69 µM) in test [1] (setting [16]); 0.5 to 1 µg/mL (≈ 0.345 to 0.69 µM) in test [1] (setting [17]); 0.13 to 0.5 µg/mL (≈ 0.0897 to 0.345 µM) in [2] (setting [18]); 0.5 to 1 µg/mL (≈ 0.345 to 0.69 µM) in test [2] (setting [19]); 0.5 to 1 µg/mL (≈ 0.345 to 0.69 µM) in test [2] (setting [20]). Besides, the MIC in test [3] (Enterococcus) was greater than 128 µg/mL; in test [3] (Enterococcus, VRE), greater than 64 µg/mL; in [3] (Table 3, WHO-3), greater than 128 µg/mL; in [4] (Staphylococcus aureus), 1 µg/mL (≈ 0.69 µM); in test [4] (Staphylococcus aureus, MRSA), 0.5 µg/mL (≈ 0.345 µM); in test [4] (Table 3, WHO-31) it was 1 µg/mL (≈ 0.69 µM). Moreover, the MIC in test [5] (setting [21]) is 2 µg/mL (≈ 1.38 µM); in [5] (setting [22]), 4 µg/mL (≈ 2.76 µM); in [5] (setting [23]), 4 µg/mL (≈ 2.76 µM); in test [6] (setting [15]), 0.5 to 1 µg/mL (≈ 0.345 to 0.69 µM); in [6] (setting [16]) it was 1 µg/mL (≈ 0.69 µM); in test [6] (setting [17]) it was 1 µg/mL (≈ 0.69 µM). Also, the MIC (in test [7]; against E. coli (Escherichia coli); against K. penumonia (Klebsiella pneumoniae); in the test with P. aeruginosa (Pseudomonas aeruginosa)) was greater than 128 µg/mL throughout.

The term MIC denotes the lowest concentration found to suppress growth. The low end stands for a more susceptible organism, the high end for a less susceptible organism.
